# Test results published in patent US20240336611A1 (Insilico Medicine IP Limited, priority 2021, published 2024).
# What was measured:
# [1] = Metabolic stability in human liver microsomes; format: in vitro ADME; details: LM Clint (intrinsic clearance); 1 μM test compound, 0.5 mg protein/mL microsome, 37° C., up to 60 min
# Procedure: 2.1. Test Compound and Control Working Solution Preparation: Working solution: 5 µL of compound and control stock solution (10 mM in dimethyl sulfoxide (DMSO)) were diluted with 495 μL of acetonitrile (ACN) (intermediate solution concentration: 100 μM, 99% ACN).
# 2.2.1. […] 2.2.2. Preparation Procedure: The appropriate amount of NADPH powder were weighed and diluted into a 10 mM MgCl2 solution (working solution concentration: 10 unit/mL; final concentration in reaction system: 1 unit/mL).
# 2.3.2. Preparation Procedure: The appropriate concentrations of microsome working solutions were prepared in 100 mM potassium phosphate buffer. 2.4. Stop Solution Preparation: Cold (4° C.) acetonitrile (ACN) containing 200 ng/mL tolbutamide and 200 ng/mL labetalol as internal standards (IS) were used as the stop solution.
# 2.5.1. Pre-warm empty ‘Incubation’ plates T60 and NCF60 for 10 min minutes. 2.5.2. Liver microsomes were diluted to 0.56 mg/mL in 100 mM phosphate buffer. 2.5.3. 445 uL microsome working solutions (0.56 mg/mL) were transferred into pre-warmed ‘Incubation’ plates T60 and NCF60. Then ‘Incubation’ plates T60 and NCF60 were pre-incubated for 10 min at 37° C. with constant shaking. 54 μL liver microsomes were transferred to blank plate, then 6 μL NAPDH cofactor were added to the blank plate, and then 180 μL quenching solution can be added to blank plate. 2.5.4 5 μL compound working solution (100 μM) were added into ‘incubation’ plates (T60 and NCF60) containing microsomes and mix 3 times thoroughly. 2.5.5. For the NCF60 plate, 50 uL of buffer were added and were mixed 3 times thoroughly. Start timing; plate was incubated at 37° C. for 60 min while shaking. 2.5.6. In ‘Quenching’ plate TO, 180 μL quenching solution were added and 6 μL NAPDH cofactor were added. Ensured the plate was chilled to prevent evaporation. 2.5.7. For the T60 plate, were mixed 3 times thoroughly, and immediately removed 54 μL mixture for the 0-min time point to ‘Quenching’ plate. Then 44 μL NAPDH cofactor were added to incubation plate (T60). Start timing; plate were incubated at 37° C. for 60 min while shaking.
# 2.5.8. At 5, 10, 20, 30, and 60 min, 180 μL quenching solution were added to ‘Quenching’ plates, mix once, and were serially transferred 60 μL sample from T60 plate per time point to ‘Quenching’ plates.
# 2.5.9. For NCF60: were mixed once, and 60 μL sample were transferred from the NCF60 incubation to ‘Quenching’ plate containing quenching solution at the 60-min time point.
# 2.5.10. All sampling plates were shaken for 10 min, then centrifuged at 4000 rpm for 20 minutes at 4° C. 2.5.11. 80 μL supernatant were transferred into 240 μL HPLC water, and were mixed by plate shaker for 10 min. 2.5.12. Each bioanalysis plate were sealed and shaken for 10 minutes prior to LC-MS/MS analysis.
# 3.1. The equation of first order kinetics were used to calculate T1/2 and Intrinsic clearance (CLint mic) in (μL/min/mg).
# Equation of first order kinetic.
# [2] = target: T1, TNIK kinase [amino acid sequence (1-367), Invitrogen] (Homo sapiens, UniProt Q9UKE5); test: TNIK kinase inhibition assay (Z-lyte FRET-peptide); format: biochemical; details: 0.625 nM TNIK kinase, 2 μM Ser/Thr 7 peptide, 64 μM ATP, one hour at room temperature
# T1 construct: purchased Invitrogen
# T1 sequence (Q9UKE5 1-367): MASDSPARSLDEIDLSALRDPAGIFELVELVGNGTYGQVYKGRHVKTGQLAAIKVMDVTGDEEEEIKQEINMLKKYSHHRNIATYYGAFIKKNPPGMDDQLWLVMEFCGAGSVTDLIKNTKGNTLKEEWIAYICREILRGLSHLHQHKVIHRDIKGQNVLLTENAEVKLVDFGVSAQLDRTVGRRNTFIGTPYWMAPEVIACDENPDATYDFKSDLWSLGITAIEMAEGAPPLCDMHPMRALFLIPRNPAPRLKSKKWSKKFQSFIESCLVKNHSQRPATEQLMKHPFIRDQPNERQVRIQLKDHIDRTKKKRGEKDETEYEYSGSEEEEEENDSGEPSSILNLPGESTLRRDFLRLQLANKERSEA
# Procedure: Z-lyte assay kit was purchased from Invitrogen. A site-specific protease recognizes and cleaves non-phosphorylated FRET-peptides. Phosphorylation of FRET-peptides suppresses cleavage by protease and will maintain FRET from donor to acceptor.
# 5 μl of Development Reagent A solution was then added to cleave non-phosphorylated peptide with a dilution 1:65000 in Development Buffer B. The assay plate was incubated at room temperature for another one hour and then read in the Envision plate reader (PerkinElmer).
Human Liver Microsome (μM/min/mg) [1],IC50 [2] [nM],SMILES
++ (10-100 μM/min/mg as ++),1 to 12,"CC(C)n1cnc(-c2ccc(F)cc2)c1-c1nc(C(=O)Nc2ccc(N3CCN(C)CC3)cc2)cs1 [Compound 2, 2-(4-(4-fluorophenyl)-1-isopropyl-1H-imidazol-5-yl)-N-(4-(4-methylpiperazin-1-yl)phenyl)thiazole-4-carboxamide]"
+ (>100 μM/min/mg as +),1 to 12,"CC(C)n1cnc(-c2ccc(F)cc2)c1-c1nc(C(=O)Nc2ccc(N3CCN(C)CC3)cc2F)cs1 [Compound 6, N-(2-fluoro-4-(4-methylpiperazin-1-yl)phenyl)-2-(4-(4-fluorophenyl)-1-isopropyl-1H-imidazol-5-yl)thiazole-4-carboxamide]"
+ (>100 μM/min/mg as +),1 to 12,"CC(C)n1cnc(-c2ccc(F)cc2)c1-c1nc(C(=O)Nc2ccc(N3CCN(C)CC3)cn2)cs1 [Compound 7, 2-(4-(4-fluorophenyl)-1-isopropyl-1H-imidazol-5-yl)-N-(5-(4-methylpiperazin-1-yl)pyridin-2-yl)thiazole-4-carboxamide]"
+ (>100 μM/min/mg as +),1 to 12,"CC(C)n1cnc(-c2ccc(F)cc2)c1-c1nc(C(=O)Nc2ccc(N3CCN(C)CC3)nc2)cs1 [Compound 8, 2-(4-(4-fluorophenyl)-1-isopropyl-1H-imidazol-5-yl)-N-(6-(4-methylpiperazin-1-yl)pyridin-3-yl)thiazole-4-carboxamide]"
++ (10-100 μM/min/mg as ++),1 to 12,"CC(C)n1cnc(-c2ccc(F)cc2)c1-c1nc(C(=O)Nc2ccc(C3CCN(C)CC3)cn2)cs1 [Compound 9, 2-(4-(4-fluorophenyl)-1-isopropyl-1H-imidazol-5-yl)-N-(5-(1-methylpiperidin-4-yl)pyridin-2-yl)thiazole-4-carboxamide]"
++ (10-100 μM/min/mg as ++),1 to 12,"CC(C)n1cnc(-c2ccc(F)cc2)c1-c1csc(C(=O)Nc2ccc(N3CCN(C)CC3)cc2F)n1 [Compound 12, N-(2-fluoro-4-(4-methylpiperazin-1-yl)phenyl)-4-(4-(4-fluorophenyl)-1-isopropyl-1H-imidazol-5-yl)thiazole-2-carboxamide]"
+ (>100 μM/min/mg as +),1 to 12,"CC(C)n1cnc(-c2ccc(F)cc2)c1-c1csc(C(=O)Nc2ccc(N3CCN(C)CC3)cn2)n1 [Compound 13, 4-(4-(4-fluorophenyl)-1-isopropyl-1H-imidazol-5-yl)-N-(5-(4-methylpiperazin-1-yl)pyridin-2-yl)thiazole-2-carboxamide]"
++ (10-100 μM/min/mg as ++),1 to 12,"CC(C)n1cnc(-c2ccc(F)cc2)c1-c1nc(C(=O)Nc2ccc(N3CCN(C)CC3)cc2F)c[nH]1 [Compound 14, N-(2-fluoro-4-(4-methylpiperazin-1-yl)phenyl)-5′-(4-fluorophenyl)-3′-isopropyl-1H,3′H-[2,4′-biimidazole]-4-carboxamide]"
++ (10-100 μM/min/mg as ++),1 to 12,"CC(C)n1cnc(-c2ccc(F)cc2)c1-c1nc(C(=O)Nc2ccc(N3CCN(C)CC3)cn2)c[nH]1 [Compound 21, 5′-(4-fluorophenyl)-3′-isopropyl-N-(5-(4-methylpiperazin-1-yl)pyridin-2-yl)-1H,3′H-[2,4′-biimidazole]-4-carboxamide]"
++ (10-100 μM/min/mg as ++),12 to 150,"CN1CCN(c2ccc(NC(=O)c3c[nH]c(-c4c(-c5ccc(F)cc5)ncn4C4CCC4)n3)cc2)CC1 [Compound 26, 3′-cyclobutyl-5′-(4-fluorophenyl)-N-(4-(4-methylpiperazin-1-yl)phenyl)-1H,3′H-[2,4′-biimidazole]-4-carboxamide]"
+ (>100 μM/min/mg as +),1 to 12,"CC(C)n1cnc(-c2ccc(F)cc2)c1-c1nc(C(=O)Nc2ccc(N3CCN(C)CC3)cc2F)co1 [Compound 28, N-(2-fluoro-4-(4-methylpiperazin-1-yl)phenyl)-2-(4-(4-fluorophenyl)-1-isopropyl-1H-imidazol-5-yl)oxazole-4-carboxamide]"
++ (10-100 μM/min/mg as ++),1 to 12,"CC(C)n1cnc(-c2ccc(F)cc2)c1-c1nc(C(=O)Nc2ccc(C3CN(C)C3)cn2)cs1 [Compound 30, 2-(4-(4-fluorophenyl)-1-isopropyl-1H-imidazol-5-yl)-N-(5-(1-methylazetidin-3-yl)pyridin-2-yl)thiazole-4-carboxamide]"
++ (10-100 μM/min/mg as ++),12 to 150,"CC(C)c1noc(-c2ccc(F)cc2)c1-c1nc(C(=O)Nc2ccc(C3COC3)cc2F)cs1 [Compound 31, N-(2-fluoro-4-(oxetan-3-yl)phenyl)-2-(5-(4-fluorophenyl)-3-isopropylisoxazol-4-yl)thiazole-4-carboxamide]"
++ (10-100 μM/min/mg as ++),1 to 12,"CN1CCN(c2ccc(NC(=O)c3csc(-c4c(-c5ccc(F)cc5)ncn4C4CC4)n3)nc2)CC1 [Compound 42, 2-(1-cyclopropyl-4-(4-fluorophenyl)-1H-imidazol-5-yl)-N-(5-(4-methylpiperazin-1-yl)pyridin-2-yl)thiazole-4-carboxamide]"
++ (10-100 μM/min/mg as ++),,"[2H]C([2H])([2H])N1CC(c2ccc(NC(=O)c3nc(-c4c(-c5ccc(F)cc5)ncn4C(C)C)cs3)c(F)c2)C1 [Compound 131, 4-[5-(4-fluorophenyl)-3-isopropyl-imidazol-4-yl]-N-[2-fluoro-4-[1-(trideuteriomethyl)azetidin-3-yl]phenyl]thiazole-2-carboxamide]"

SMILES,Human Liver Microsome (μM/min/mg) [1],IC50 [2] [nM]
"CC(C)n1cnc(-c2ccc(F)cc2)c1-c1nc(C(=O)Nc2ccc(N3CC4CC(C3)N4C)cc2)c[nH]1 [Compound 23, 5′-(4-fluorophenyl)-3′-isopropyl-N-(4-(6-methyl-3,6-diazabicyclo[3.1.1]heptan-3-yl)phenyl)-1H,3′H-[2,4′-biimidazole]-4-carboxamide]",++ (10-100 μM/min/mg as ++),1 to 12
"CC(C)n1cnc(-c2ccc(F)cc2)c1-c1nc(C(=O)Nc2ccc(N3C[C@H]4CC[C@@H](C3)N4C)cn2)c[nH]1 [Compound 24, 5′-(4-fluorophenyl)-3′-isopropyl-N-(5-((1R,5S)-8-methyl-3,8-diazabicyclo[3.2.1]octan-3-yl)pyridin-2-yl)-1H,3′H-[2,4′-biimidazole]-4-carboxamide]",++ (10-100 μM/min/mg as ++),1 to 12
"CC(C)n1cnc(-c2ccc(F)cc2)c1-c1nc(C(=O)Nc2ccc(N3C[C@H]4CC[C@@H](C3)N4C)cn2)co1 [Compound 40, 2-(4-(4-fluorophenyl)-1-isopropyl-1H-imidazol-5-yl)-N-(5-((1R,5S)-8-methyl-3,8-diazabicyclo[3.2.1]octan-3-yl)pyridin-2-yl)oxazole-4-carboxamide]",+ (>100 μM/min/mg as +),1 to 12
"CC(C)n1cnc(-c2ccc(F)cc2)c1-c1nc(C(=O)Nc2ccc(N3C[C@H]4CC[C@@H](C3)N4C)cn2)cs1 [Compound 41, 2-(4-(4-fluorophenyl)-1-isopropyl-1H-imidazol-5-yl)-N-(5-((1R,5S)-8-methyl-3,8-diazabicyclo[3.2.1]octan-3-yl)pyridin-2-yl)thiazole-4-carboxamide]",++ (10-100 μM/min/mg as ++),1 to 12
